The values below come from publication PMC11938129, “Gravacin as an inhibitor of the auxin transport-activating protein kinase D6PK in Arabidopsis” (Frontiers in Plant Science, 2025).

A word on the Kd: it is a measure of binding affinity in units of concentration. The low end stands for a tighter complex, the high end for a looser complex.

The target of assay [1] is T1, D6PK (His-D6PK) (Arabidopsis thaliana, UniProt Q9FG74).
T1 construct: His-tagged recombinant D6PK, expressed in E. coli BL21 (DE3), Ni-NTA purified
T1 sequence (Q9FG74 1-498): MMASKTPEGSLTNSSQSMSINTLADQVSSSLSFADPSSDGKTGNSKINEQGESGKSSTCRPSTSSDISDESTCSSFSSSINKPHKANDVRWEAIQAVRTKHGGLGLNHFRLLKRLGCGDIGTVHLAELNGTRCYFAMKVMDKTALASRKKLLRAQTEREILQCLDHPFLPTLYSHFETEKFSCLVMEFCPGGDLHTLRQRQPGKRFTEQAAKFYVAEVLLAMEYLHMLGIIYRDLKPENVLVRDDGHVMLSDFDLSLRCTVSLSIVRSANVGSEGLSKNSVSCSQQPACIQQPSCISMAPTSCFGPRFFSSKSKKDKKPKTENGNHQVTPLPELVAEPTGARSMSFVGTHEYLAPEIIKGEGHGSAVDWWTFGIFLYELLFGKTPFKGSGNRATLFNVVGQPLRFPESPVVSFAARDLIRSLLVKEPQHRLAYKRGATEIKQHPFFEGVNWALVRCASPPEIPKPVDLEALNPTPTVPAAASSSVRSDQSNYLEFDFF
The experiment in a line: in vitro kinase assay, […]ATP autoradiography of His-PIN1-HL phosphorylation. As to conditions: partial, dose-dependent inhibition; substrate His-PIN1-HL; 10 mM ATP (so in the source), 10 mM MgCl2, 1 mM DTT, Tris-HCl pH 7.5, 25 °C, 60 min. Type of assay: biochemical.

In assay [2] the target is T1, D6PK (His-D6PK). Put plainly: surface plasmon resonance (Biacore 8K), steady state affinity model. It counts as binding. Background: In SPR one partner is held on a chip, and binding of the other changes the refractive index at the surface.

SMILES strings stand for the structures.

Consider `O=C(O)C=Cc1ccc(-c2ccc(Cl)c(Cl)c2)o1` [gravacin, 3-(5-[3,4-dichlorophenyl]-2-furyl)-acrylic acid], for which, at D6PK (His-D6PK) [1], the “in vitro kinase assay, [32P]ATP autoradiography of His-PIN1-HL phosphorylation” value was “His-D6PK-induced phosphorylation of His-PIN1 was partially suppressed by gravacin in a dose-dependent manner”. Besides, the Kd at D6PK (His-D6PK) [2] was roughly 334 µM.
